Experimental data: publication PMC7827406, “Structure–Activity Relationship (SAR) Study of Spautin-1 to Entail the Discovery of Novel NEK4 Inhibitors” (International Journal of Molecular Sciences, 2021)
Like-named read-outs stand apart in the source and are kept apart here.

Columns and labels:
Assay in all cases: biochemical
Parameters in all cases: Eurofins KinaseProfiler full panel at Km ATP, residual kinase activity (%) relative to DMSO
CDK6/cyclinD3(h) = CDK6/cyclinD3(h) (Homo sapiens, UniProt Q00534)
CDK6/cyclinD3(h), sequence (Q00534 whole entry): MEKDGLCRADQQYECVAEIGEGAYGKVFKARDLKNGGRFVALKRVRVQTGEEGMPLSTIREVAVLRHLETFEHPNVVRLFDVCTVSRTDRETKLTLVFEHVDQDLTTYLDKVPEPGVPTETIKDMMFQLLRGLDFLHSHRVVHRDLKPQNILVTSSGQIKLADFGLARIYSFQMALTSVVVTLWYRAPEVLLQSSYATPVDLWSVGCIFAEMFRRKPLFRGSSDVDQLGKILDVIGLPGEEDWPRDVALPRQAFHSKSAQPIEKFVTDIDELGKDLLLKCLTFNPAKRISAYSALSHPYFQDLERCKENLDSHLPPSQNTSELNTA
CDK6/cyclinD3(h), sequence (P30281 whole entry partner): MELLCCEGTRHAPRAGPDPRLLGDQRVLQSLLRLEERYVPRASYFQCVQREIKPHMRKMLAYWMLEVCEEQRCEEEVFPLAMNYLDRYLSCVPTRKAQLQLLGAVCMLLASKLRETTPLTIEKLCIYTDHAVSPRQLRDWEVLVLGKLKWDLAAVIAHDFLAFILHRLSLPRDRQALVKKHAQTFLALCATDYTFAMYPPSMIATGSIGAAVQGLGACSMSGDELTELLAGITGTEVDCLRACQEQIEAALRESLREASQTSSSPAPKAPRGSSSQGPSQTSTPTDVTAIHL
Outline: (§1)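 Radiometric kinase activity assays were run with ATP at Km and compounds at 10 µM, and remaining activity (%) was reported. A separate competitive binding screen measured DNA-tagged kinase displaced from immobilized active-site ligands by qPCR, giving percent kinase still bound at 10 µM compound in DMSO.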

SGK2(h) = target: T1, SGK2(h) (Homo sapiens, UniProt Q9HBY8)
T1 sequence (Q9HBY8 1-367): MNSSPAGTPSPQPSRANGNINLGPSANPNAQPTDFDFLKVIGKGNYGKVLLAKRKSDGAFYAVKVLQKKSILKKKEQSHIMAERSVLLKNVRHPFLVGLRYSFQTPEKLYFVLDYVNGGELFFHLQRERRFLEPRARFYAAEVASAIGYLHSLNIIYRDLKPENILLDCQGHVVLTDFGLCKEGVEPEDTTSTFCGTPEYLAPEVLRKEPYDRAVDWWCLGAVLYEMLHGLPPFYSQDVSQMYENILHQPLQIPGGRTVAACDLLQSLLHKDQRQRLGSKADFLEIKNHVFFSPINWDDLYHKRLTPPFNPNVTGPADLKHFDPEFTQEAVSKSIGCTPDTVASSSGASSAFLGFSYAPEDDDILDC
Outline: as §1

CaMKI(h) = target: T2, CaMKI(h) (Homo sapiens, UniProt Q14012)
T2 construct: gene CAMK1
T2 sequence (Q14012 whole entry): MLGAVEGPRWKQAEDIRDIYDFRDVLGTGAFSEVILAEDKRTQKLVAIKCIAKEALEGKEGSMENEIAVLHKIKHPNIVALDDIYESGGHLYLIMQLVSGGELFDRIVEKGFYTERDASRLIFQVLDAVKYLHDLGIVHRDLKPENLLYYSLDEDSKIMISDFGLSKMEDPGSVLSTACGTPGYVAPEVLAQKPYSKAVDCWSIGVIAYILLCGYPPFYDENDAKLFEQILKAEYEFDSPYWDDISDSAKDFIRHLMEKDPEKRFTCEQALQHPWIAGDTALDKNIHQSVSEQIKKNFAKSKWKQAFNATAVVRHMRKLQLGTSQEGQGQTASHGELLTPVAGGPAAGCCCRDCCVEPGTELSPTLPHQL
Outline: as §1

MEKK2(h) = target: T3, MEKK2(h) (Homo sapiens, UniProt Q9Y2U5)
T3 construct: gene MAP3K2
T3 sequence (Q9Y2U5 1-619): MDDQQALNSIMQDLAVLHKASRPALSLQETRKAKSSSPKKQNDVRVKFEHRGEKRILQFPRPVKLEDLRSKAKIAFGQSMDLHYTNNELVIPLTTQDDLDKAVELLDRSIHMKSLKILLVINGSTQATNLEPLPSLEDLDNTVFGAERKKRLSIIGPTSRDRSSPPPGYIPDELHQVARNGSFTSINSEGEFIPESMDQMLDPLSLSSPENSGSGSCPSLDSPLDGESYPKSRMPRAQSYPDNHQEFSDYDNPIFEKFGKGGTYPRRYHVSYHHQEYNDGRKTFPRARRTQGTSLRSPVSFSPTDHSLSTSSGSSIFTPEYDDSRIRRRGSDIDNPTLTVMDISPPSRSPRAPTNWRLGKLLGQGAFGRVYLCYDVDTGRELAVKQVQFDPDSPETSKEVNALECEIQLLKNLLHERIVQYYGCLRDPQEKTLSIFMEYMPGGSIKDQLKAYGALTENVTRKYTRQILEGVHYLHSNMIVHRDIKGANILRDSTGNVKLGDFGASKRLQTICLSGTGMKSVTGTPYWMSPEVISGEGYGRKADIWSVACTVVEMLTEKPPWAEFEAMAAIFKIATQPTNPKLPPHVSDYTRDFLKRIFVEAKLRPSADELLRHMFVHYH
Outline: as §1

Rsk3(h) = target: T4, Rsk3(h) (Homo sapiens, UniProt Q15349)
T4 construct: gene RPS6KA2
T4 sequence (Q15349 whole entry): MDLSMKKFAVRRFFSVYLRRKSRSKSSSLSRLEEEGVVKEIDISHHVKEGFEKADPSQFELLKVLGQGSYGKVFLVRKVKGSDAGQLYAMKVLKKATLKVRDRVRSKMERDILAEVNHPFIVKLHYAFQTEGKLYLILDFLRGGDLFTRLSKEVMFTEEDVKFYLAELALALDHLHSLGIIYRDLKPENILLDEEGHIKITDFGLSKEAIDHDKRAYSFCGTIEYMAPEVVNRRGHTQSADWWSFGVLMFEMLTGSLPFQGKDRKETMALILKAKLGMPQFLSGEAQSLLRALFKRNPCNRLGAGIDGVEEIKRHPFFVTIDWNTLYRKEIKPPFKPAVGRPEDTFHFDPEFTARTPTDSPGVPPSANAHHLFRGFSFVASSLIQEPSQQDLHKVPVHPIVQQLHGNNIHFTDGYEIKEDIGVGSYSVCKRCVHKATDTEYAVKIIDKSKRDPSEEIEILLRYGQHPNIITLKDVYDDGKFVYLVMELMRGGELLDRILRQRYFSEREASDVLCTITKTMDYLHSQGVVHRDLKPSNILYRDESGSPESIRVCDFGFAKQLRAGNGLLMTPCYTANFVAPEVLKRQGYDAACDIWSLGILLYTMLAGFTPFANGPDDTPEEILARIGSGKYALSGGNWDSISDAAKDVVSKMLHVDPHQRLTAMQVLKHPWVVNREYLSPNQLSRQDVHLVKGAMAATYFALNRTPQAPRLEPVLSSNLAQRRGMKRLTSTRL
Outline: as §1

PASK(h) = PASK(h) (Homo sapiens, UniProt Q96RG2)
PASK(h), sequence (Q96RG2 whole entry): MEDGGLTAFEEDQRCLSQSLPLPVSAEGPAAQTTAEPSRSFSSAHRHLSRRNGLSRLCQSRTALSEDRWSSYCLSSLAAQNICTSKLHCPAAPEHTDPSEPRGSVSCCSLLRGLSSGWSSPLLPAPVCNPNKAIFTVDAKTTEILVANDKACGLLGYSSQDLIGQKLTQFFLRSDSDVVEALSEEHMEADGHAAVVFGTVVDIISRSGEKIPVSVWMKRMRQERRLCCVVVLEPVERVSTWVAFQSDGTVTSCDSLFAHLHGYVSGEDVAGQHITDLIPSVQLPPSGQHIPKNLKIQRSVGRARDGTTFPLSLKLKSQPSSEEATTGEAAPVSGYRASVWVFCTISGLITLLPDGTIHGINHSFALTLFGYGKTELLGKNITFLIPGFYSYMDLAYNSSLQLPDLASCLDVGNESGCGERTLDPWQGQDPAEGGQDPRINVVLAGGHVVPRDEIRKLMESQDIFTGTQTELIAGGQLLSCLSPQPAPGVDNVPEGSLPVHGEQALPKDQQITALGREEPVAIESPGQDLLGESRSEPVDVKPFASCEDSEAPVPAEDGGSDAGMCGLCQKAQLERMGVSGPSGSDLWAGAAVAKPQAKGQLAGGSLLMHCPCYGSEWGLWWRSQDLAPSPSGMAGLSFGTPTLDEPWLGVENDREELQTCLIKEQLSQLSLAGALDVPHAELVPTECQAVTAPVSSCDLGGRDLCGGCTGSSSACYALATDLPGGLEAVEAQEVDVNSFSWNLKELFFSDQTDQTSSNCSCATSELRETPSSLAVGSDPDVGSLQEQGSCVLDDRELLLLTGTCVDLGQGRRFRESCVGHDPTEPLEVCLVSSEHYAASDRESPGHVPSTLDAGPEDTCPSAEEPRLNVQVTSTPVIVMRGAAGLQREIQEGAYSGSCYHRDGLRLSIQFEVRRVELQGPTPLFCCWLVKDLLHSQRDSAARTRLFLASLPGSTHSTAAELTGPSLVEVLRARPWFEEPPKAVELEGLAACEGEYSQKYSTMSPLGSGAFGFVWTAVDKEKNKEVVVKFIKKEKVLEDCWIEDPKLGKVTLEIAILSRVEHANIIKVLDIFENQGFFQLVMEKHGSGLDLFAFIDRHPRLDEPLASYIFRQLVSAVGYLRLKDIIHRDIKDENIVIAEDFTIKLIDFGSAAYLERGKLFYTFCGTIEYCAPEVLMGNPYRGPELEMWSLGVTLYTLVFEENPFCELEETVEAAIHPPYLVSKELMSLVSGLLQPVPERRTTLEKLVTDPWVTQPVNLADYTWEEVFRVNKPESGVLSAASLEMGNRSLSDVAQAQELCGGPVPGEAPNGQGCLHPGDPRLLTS
Outline: as §1

CDK2/cyclinA(h) = CDK2/cyclinA(h) (Homo sapiens, UniProt P24941)
Outline: as §1

DCAMKL2(h) = target: T5, DCAMKL2(h) (Homo sapiens, UniProt Q8N568)
T5 construct: gene DCLK2
T5 sequence (Q8N568 1-766): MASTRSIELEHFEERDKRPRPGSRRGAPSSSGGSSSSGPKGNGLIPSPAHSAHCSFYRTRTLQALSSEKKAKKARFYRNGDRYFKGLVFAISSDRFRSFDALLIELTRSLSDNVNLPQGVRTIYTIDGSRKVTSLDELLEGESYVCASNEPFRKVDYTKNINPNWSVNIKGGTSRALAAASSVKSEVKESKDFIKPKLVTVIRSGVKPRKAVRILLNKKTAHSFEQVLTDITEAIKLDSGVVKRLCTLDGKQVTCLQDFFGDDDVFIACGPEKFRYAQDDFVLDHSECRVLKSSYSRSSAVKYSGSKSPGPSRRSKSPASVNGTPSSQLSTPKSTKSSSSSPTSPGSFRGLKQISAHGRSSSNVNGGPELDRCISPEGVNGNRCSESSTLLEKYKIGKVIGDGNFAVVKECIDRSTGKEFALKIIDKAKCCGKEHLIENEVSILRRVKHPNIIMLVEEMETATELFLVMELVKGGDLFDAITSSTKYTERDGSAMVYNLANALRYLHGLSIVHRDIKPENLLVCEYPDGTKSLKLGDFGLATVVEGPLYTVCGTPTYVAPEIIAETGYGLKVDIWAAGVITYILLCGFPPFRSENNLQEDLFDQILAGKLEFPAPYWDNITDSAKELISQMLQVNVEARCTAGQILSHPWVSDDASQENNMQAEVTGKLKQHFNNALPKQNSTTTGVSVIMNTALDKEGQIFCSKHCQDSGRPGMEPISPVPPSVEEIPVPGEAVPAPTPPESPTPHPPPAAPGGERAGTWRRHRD
Outline: as §1

[1] = read-out: Residual activity (%) Spautin-1 5aa
[2] = read-out: Residual activity (%) 5as
[3] = read-out: Residual activity (%) 5at
[4] = read-out: Residual activity (%) 5ay

Fc1ccc(CNc2ncnc3ccc(F)cc23)cc1 [5aa, 6-Fluoro-N-(4-fluorobenzyl)-4-Quinazolinamine]
remaining activity at 10 µM (CDK6/cyclinD3(h); [1]): 102% | remaining activity at 10 µM (SGK2(h); [1]): 108% | remaining activity at 10 µM (CaMKI(h); [1]): 90% | remaining activity at 10 µM (MEKK2(h); [1]): 113% | remaining activity at 10 µM (Rsk3(h); [1]): 126% | remaining activity at 10 µM (PASK(h); [1]): 66% | remaining activity at 10 µM (CDK2/cyclinA(h); [1]): 95% | remaining activity at 10 µM (DCAMKL2(h); [1]): 81%

Fc1ccc(CCNc2ncnc3ccc(F)cc23)cc1 [5as, 6-Fluoro-N-[2-(4-Fluorophenyl)Ethyl]-4-Quinazolinamine]
remaining activity at 10 µM (CDK6/cyclinD3(h); [2]): 96% | remaining activity at 10 µM (SGK2(h); [2]): 115% | remaining activity at 10 µM (CaMKI(h); [2]): 60% | remaining activity at 10 µM (MEKK2(h); [2]): 99% | remaining activity at 10 µM (Rsk3(h); [2]): 108% | remaining activity at 10 µM (PASK(h); [2]): 44% | remaining activity at 10 µM (CDK2/cyclinA(h); [2]): 82% | remaining activity at 10 µM (DCAMKL2(h); [2]): 64%

Fc1ccc2ncnc(NCCc3ccc(Cl)cc3)c2c1 [5at, N-[2-(4-Chlorophenyl)Ethyl]-6-Fluoro-4-Quinazolinamine]
remaining activity at 10 µM (CDK6/cyclinD3(h); [3]): 98% | remaining activity at 10 µM (SGK2(h); [3]): 89% | remaining activity at 10 µM (CaMKI(h); [3]): 104% | remaining activity at 10 µM (MEKK2(h); [3]): 102% | remaining activity at 10 µM (Rsk3(h); [3]): 111% | remaining activity at 10 µM (PASK(h); [3]): 30% | remaining activity at 10 µM (CDK2/cyclinA(h); [3]): 86% | remaining activity at 10 µM (DCAMKL2(h); [3]): 57%

COc1ccc2ncnc(Nc3cccc(F)c3)c2c1 [5ay, N-(3-Fluorophenyl)-6-Methoxy-4-Quinazolinamine]
remaining activity at 10 µM (CDK6/cyclinD3(h); [4]): 87% | remaining activity at 10 µM (SGK2(h); [4]): 103% | remaining activity at 10 µM (CaMKI(h); [4]): 93% | remaining activity at 10 µM (MEKK2(h); [4]): 108% | remaining activity at 10 µM (Rsk3(h); [4]): 87% | remaining activity at 10 µM (PASK(h); [4]): 65% | remaining activity at 10 µM (CDK2/cyclinA(h); [4]): 83% | remaining activity at 10 µM (DCAMKL2(h); [4]): 80%
